16 molecules from patent EP0433759A1, “4-Substituted alkyl carbapenem antibiotics” (Bristol-Myers Squibb Company, priority 1989, dated 1991) can be followed below.

A short description of series [1]: Chemical stability in aqueous solution (half-life). It is filed as physicochemical. The note with it: 37°C, 10^-4 M, pH 7.4, aqueous solution; read-out: Half-life (T 1/2) (converted). The method, then: These values were determined by the method of Woodward et al, J. Am. Chem. Soc., 102, 2042 (1980)
A further series relates to Escherichia coli, A15119. Put plainly: In vitro antibacterial activity (MIC), serial 2-fold dilution. In kind it is cell-based. The following applies: read-out: Antibacterial Activity MIC E. coli. The method, then: (§1) In vitro antibacterial activity was determined by serial 2-fold dilution of the compound in Mueller-Hinton agar and inoculation of the agar surface or broth with an appropriately diluted 18-24 h broth culture.

Series [2] deals with Pseudomonas aeruginosa, A9843. Described as above. It is filed as cell-based. The note with it: read-out: Antibacterial Activity MIC P. aer. The method, then: as §1
The test system of series [3] is Streptococcus pneumoniae, A9585. The description is as above. It is filed as cell-based. The note with it: read-out: Antibacterial Activity MIC S. pn. The method, then:
as §1

Where [4] appears, read: Escherichia coli A15119, Mueller-Hinton, 37°C, 17 h.
[5] abbreviates: Pseudomonas aeruginosa A9843, Mueller-Hinton, 37°C, 17 h.
Setting [6] is: Streptococcus pneumoniae A9585, Mueller-Hinton, 37°C, 17 h.

Values after ≈ are worked out from the molar mass of the structure shown. Where a name gives a salt, the structure may show the parent alone. Read-outs that look alike come from different tables or passages of the source.

As usually defined, the MIC is the least concentration at which growth counts as inhibited. Turning to `C[C@@H](O)[C@H]1C(=O)N2C(C(=O)[O-])=C(SCCC#N)[C@H](CC[n+]3ccccc3)[C@H]12` [Example 136, (4R,5S,6S)-3-[(2-Cyanoethyl)thio]-6-[(1'R)-1'-hydroxyethyl]-4-[2"-(1-pyridinium)ethyl]7-oxo-1-azabicyclo-[3.2.0]hept-2-ene-2-carboxylate], the half-life at 100 µM in series [1] is 17 h. For the same molecule, the MIC in the series with Escherichia coli, A15119 (setting [4]) was found to be 0.007 µg/mL (≈ 0.0181 µM); in series [2] (setting [5]), 4 µg/mL (≈ 10.3 µM); in series [3] (setting [6]), 0.015 µg/mL (≈ 0.0387 µM).

`C[C@@H](O)[C@H]1C(=O)N2C(C(=O)O)=C(SCCC#N)[C@H](CCN(C)CCC#N)[C@H]12` [Example 124, (4R,5S,6S)-3-[(2-Cyanoethyl)thio]-4-[2"-[N,N-(2-cyanoethyl)methylamino]ethy!]-6-[(1'R)-1'-hydroxyethyl]-7-oxo-1-azabicyclo[3.2.0]hept-2-ene-2-carboxylic acid]: the half-life at 100 µM in series [1] was 21 h. The MIC in the series with Escherichia coli, A15119 (setting [4]) turned out to be 0.03 µg/mL (≈ 0.0764 µM); in series [2] (setting [5]), 2 µg/mL (≈ 5.1 µM); in series [3] (setting [6]), 0.016 µg/mL (≈ 0.0408 µM).

For the molecule `C[C@H](N)C(=O)N[C@@H](C)C(=O)NCC[C@H]1C(SCCC#N)=C(C(=O)O)N2C(=O)[C@H]([C@@H](C)O)[C@@H]12` [Example 146, (4R,5S,6S)-6-[(1'R)-1'-Hydroxyethyl]-3-[(2-cyanoethyl)-thio]-4-[2"-(L-alanyl-L-alanyl)-aminoethyl]-7-oxo-1-azabicyclo-[3.2.0]hept-2-ene-2-carboxylic acid], the MIC in the series on Escherichia coli, A15119 (setting [4]) came out at 0.125 µg/mL (≈ 0.267 µM); in series [2] (setting [5]) it was 128 µg/mL (≈ 274 µM); in series [3] (setting [6]), 0.25 µg/mL (≈ 0.535 µM).

For the molecule `C[C@@H](O)[C@H]1C(=O)N2C(C(=O)O)=C(SCCC#N)[C@H](CCN3CCOCC3)[C@H]12` [Example 49, (4R,5S,6S)-3-[(2-Cyanoethyl)thio]-6-[(1'R)-1'-hydroxyethyl]--4-[2"-(N-morpholino)ethyl]-7-oxo-1-azabicyclo-[3.2.0]hept-2-ene-2-carboxylic acid], the half-life at 100 µM in series [1] is 33.5 h. For the same molecule, the MIC in the series with Escherichia coli, A15119 (setting [4]) was determined as 0.03 µg/mL (≈ 0.0759 µM); in series [2] (setting [5]), 63 µg/mL (≈ 159 µM); in series [3] (setting [6]), 0.008 µg/mL (≈ 0.0202 µM).

Turning to `C[C@@H](O)[C@H]1C(=O)N2C(C(=O)O)=C(SCCC#N)[C@H](CCSCCN)[C@H]12` [Example 131, (4R,5S,6S)-4-(2"-(2-Aminoethylthio)ethyl]-3-[(2-cyanoethylthio]-6-[(1'R)-1'-hydroxyethy)]-7-oxo-1-azabicyclo-[3.2.0]-hept-2-ene-2-carboxylic acid], the half-life at 100 µM in series [1] is 46 h. In addition, the MIC in the series with Escherichia coli, A15119 (setting [4]) came to 0.13 µg/mL (≈ 0.337 µM); in series [2] (setting [5]), 2 µg/mL (≈ 5.19 µM); in series [3] (setting [6]) it was 0.25 µg/mL (≈ 0.648 µM).

Take `C[C@@H](O)[C@H]1C(=O)N2C(C(=O)O)=C(SCCN)[C@H](CCCN)[C@H]12` [Example 117, (4R,5S,6S)-4-(3"-Aminopropyl)-3-[(2-aminoethyl)thio]-6-[(1'R)-1'-hydroxyethyl]-7-oxo-1-azabicyclo[3.2.0]hept-2-ene-2-carboxylic acid, acetic acid_salt]: the half-life at 100 µM in series [1] is 33 h. The MIC was determined as 0.13 µg/mL in the series with Escherichia coli, A15119 (setting [4]); 0.25 µg/mL in series [2] (setting [5]); 0.13 µg/mL in series [3] (setting [6]).

Regarding `C[C@@H](O)[C@H]1C(=O)N2C(C(=O)O)=C(SCc3csnn3)[C@H](CCNC(=N)N)[C@H]12` [Example 40, (4R,5S.6S)-4-(2"-Guanidinoethyl)-6-[(1'R)-1'-hydroxyethyl]-3-[(1,2.3-thiadiazol-4-yl)methyithio]-7-oxo-1-azabicyclo-[3.2.0]hept-2-ene-2-carboxylic acid], the half-life at 100 µM in series [1] is 32.5 h. Also, the MIC was 0.008 µg/mL (≈ 0.0194 µM) with Escherichia coli, A15119 (setting [4]); 1 µg/mL (≈ 2.42 µM) in series [2] (setting [5]); 0.06 µg/mL (≈ 0.145 µM) in series [3] (setting [6]).

For the molecule `CNCCC[C@H]1C(SCCC#N)=C(C(=O)O)N2C(=O)[C@H]([C@@H](C)O)[C@@H]12` [Example 154, (4R,5S,6S)-3-[(2-Cyanoethyl]thio]-6-[(1'R]-1'-hydroxyethyl]-4-(3"-N-methylaminopropyl)-7-oxo-1-azabicyclo[3.2.0]hept-2-ene-2-carboxylic acid], in series [1], the half-life at 100 µM is 79 h. Besides, the MIC with Escherichia coli, A15119 (setting [4]) was 0.25 µg/mL (≈ 0.707 µM); in series [2] (setting [5]) it was 1 µg/mL (≈ 2.83 µM); in series [3] (setting [6]), 0.5 µg/mL (≈ 1.41 µM).

As for `C[C@@H](O)[C@H]1C(=O)N2C(C(=O)O)=C(SCc3ccccn3)[C@H](CCN)[C@H]12` [Example 3, (4R,5S,6S)-4-(2"-Aminoethyl)-6-[(1'R)-1'-hydroxyethyl]-3-[(pyridin-2-yl)methylthio]-7-oxo-1-azabicyclo-[3.2.0]-hept-2-ene-2-carboxylic acid], the half-life at 100 µM in series [1] is 3.2 h. Further, the MIC in the series with Escherichia coli, A15119 (setting [4]) was determined as 0.016 µg/mL (≈ 0.044 µM); in series [2] (setting [5]), 2 µg/mL (≈ 5.5 µM); in series [3] (setting [6]), 0.13 µg/mL (≈ 0.358 µM).

Take `C[C@@H](O)[C@H]1C(=O)N2C(C(=O)O)=C(SCCC#N)[C@H](CCCCCN)[C@H]12` [Example 121]: the half-life at 100 µM in series [1] is 136 h. The MIC was determined as 0.004 µg/mL (≈ 0.0109 µM) with Escherichia coli, A15119 (setting [4]); 1 µg/mL (≈ 2.72 µM) in series [2] (setting [5]); 0.13 µg/mL (≈ 0.354 µM) in series [3] (setting [6]).

As for `C[C@@H](O)[C@H]1C(=O)N2C(C(=O)O)=C(SCCN3CCCC3)[C@H](CCCN)[C@H]12` [Example 120, (4R,5S,6S)-4-(3"-Aminopropyl)-6-[(1'R)-1'-hydroxyethyl]-3-[2-(1-pyrrolidinyl)ethylthio]-7-oxo-1-azabicyclo-[3.2.0]-hept-2-ene-2-carboxylic acid, acetic acid salt], the half-life at 100 µM in series [1] was 23 h. The minimal inhibitory concentration (MIC) worked out at 0.13 µg/mL with Escherichia coli, A15119 (setting [4]); 0.25 µg/mL in series [2] (setting [5]); 0.03 µg/mL in series [3] (setting [6]).

On to `C[C@@H](O)[C@H]1C(=O)N2C(C(=O)O)=C(SCCC#N)[C@H](CCN)[C@H]12` [Example 36, (4R,5S,6S)-4-(2"-Aminoethyl)-3-[(2-cyanoethyl)thio]-6-[(1'R)-1'-hydroxyethyl]-7-oxo-1-azabicyclo[3.2.0]hept-2-ene-2-carboxylic acid], for which, in series [1], the half-life at 100 µM is 3.8 h. For the same molecule, the MIC in the series with Escherichia coli, A15119 (setting [4]) was 0.008 µg/mL (≈ 0.0246 µM); in series [2] (setting [5]), 0.25 µg/mL (≈ 0.768 µM); in series [3] (setting [6]), 0.13 µg/mL (≈ 0.4 µM).

On to `C[C@@H](O)[C@H]1C(=O)N2C(C(=O)O)=C(SCCO)[C@H](CCCNC=N)[C@H]12` [Example 32, (4R,5S,6S)-4-[3"-[N-Formimidoyl)aminopropyl]-6-[(1'R)-1'-hydroxyethyl]-3-[(2-hydroxyethyl)thio]-7-oxo-1-azabicyclo [3.2.0]hept-2-ene-2-carboxylic acid], for which the half-life at 100 µM in series [1] was 76 h. Besides, the MIC in the series with Escherichia coli, A15119 (setting [4]) is 0.004 µg/mL (≈ 0.0112 µM); in series [2] (setting [5]), 0.25 µg/mL (≈ 0.699 µM); in series [3] (setting [6]) it was 0.25 µg/mL (≈ 0.699 µM).

For the molecule `C[C@@H](O)[C@H]1C(=O)N2C(C(=O)O)=C(SCCC#N)[C@H](CCCN)[C@H]12` [Example 41, (4R-5S,6S)-4-(3"-Aminopropyl)-3-[(2-cyanoethy!)thio]-6-[(1'R)-1'-hydroxyethyl]-7-oxo-1-azabicyclo[3.2.0]hept-2-ene-2-carboxylic acid], the half-life at 100 µM in series [1] is 70 h. For the same molecule, the MIC in the series on Escherichia coli, A15119 (setting [4]) is 0.008 µg/mL (≈ 0.0236 µM); in series [2] (setting [5]) it was 0.5 µg/mL (≈ 1.47 µM); in series [3] (setting [6]), 0.25 µg/mL (≈ 0.737 µM).

Turning to `C[C@@H](O)[C@H]1C(=O)N2C(C(=O)O)=C(SCCN=CN)C[C@H]12` [Imipenem, imipenem, reference compound], the MIC turned out to be 0.03 µg/mL (≈ 0.1 µM) in the series with Escherichia coli, A15119 (Escherichia coli, A15119, 17 h); 2 µg/mL (≈ 6.68 µM) in series [2] (Pseudomonas aeruginosa, A9843, 17 h); 0.002 µg/mL (≈ 0.00668 µM) in series [3] (Streptococcus pneumoniae, A9585, 17 h).

With `C[C@H](N)C(=O)NCC[C@H]1C(SCCC#N)=C(C(=O)O)N2C(=O)[C@H]([C@@H](C)O)[C@@H]12` [Example 145, (4R,5S,6S)-6-[(\1'R)-1'-Hydroxyethyl]-3-[(2-cyanoethyl)-thio]-4-[2"-(L-alanyl)-aminoethyl]-7-oxo-1-azabicyclo-[3.2.0]hept-2-ene-2-carboxylic acid], the MIC in the series with Escherichia coli, A15119 (setting [4]) was determined as 0.125 µg/mL (≈ 0.315 µM); in series [2] (setting [5]), 8 µg/mL (≈ 20.2 µM); in series [3] (setting [6]) it was 0.125 µg/mL (≈ 0.315 µM).
